Measured values reported in patent US12559784B2 (priority 2023, dated 2026).
Several values for one entry are separate records, joined by “and”; a condition that tells them apart may be missing. Equal values may be shown once.

Experiments:
alkaline phosphatase [1] = assay type: biochemical
Protocol: New stocks were made the of the 1:100 alkaline phosphatase reaction reagents.
The conditions included: 1:100 dilution of alkaline phosphatase reaction reagent with two solvents (buffered saline and ethanol), dosing in 0.5 mL microcentrifuge tubes with 20 μL of chemical added to 180 μL of reaction reagent, and incubating with p-Nitrophenyl phosphate disodium salt (PNPP) substrate for 1-hour.

alkaline phosphatase [2] = conditions: 30 μL chemical in 300 μL reagent 1:100, 4 hours room temperature, 3 mL PNPP 1 hour
Protocol: We changed the test chemical dosage to 30 μL and the alkaline phosphatase reaction reagent to 300 μL, but kept the incubation to 4 hours at room temperature.
PBS: Take 4 mL of AP (1:10) stock solution, add to 36 mL PBS. Vortex mix and then invert to mix 10 times • ii. […] Vortex mix and then invert to mix 10 times • b. PBS (lx) • c. […] Prepare 4 mL glass vials for dosing • a. Four sets • i. R1+ (PBS-AP) • ii. R1− (PBS) • iii. […] Prepare 96-well plates for PNPP reading (3 wells for each test chemical) Procedure • 1. Aliquot 300 μL of each reaction reagent to 4 mL glass vials. • 2. Add 30 μL of the test sample to each 4 mL glass vial. • 3. Incubate at room temperature for 4 hours. • 4. Aliquot 3 mL of PNPP to each 4 mL glass vial, let sit for 1 hr. • a. Aliquot 750 μL into the 4 mL glass vial to stop the reaction. • 5.

alkaline phosphatase [3] = assay type: biochemical; conditions: PBS; 18 hours room temperature, PNPP 1 hour
Description: Our next study compared different dilutions of the original alkaline phosphatase source (1:10 [Activity: 1,000 units] and 1:100 [100 units]) and two sources of alkaline phosphatase, both purchased from Sigma Aldrich (St. Louis, MO). […] The five conditions for this study included original alkaline phosphatase (1:1), original alkaline phosphatase (1:10), original alkaline phosphatase (1:100), new alkaline phosphatase (1:1), and the blanks (phosphate buffered saline (PBS)). […] The two controls contained ink to determine if there would be any background effect.
Preparation • 1. Alkaline phosphatase reaction reagent • a. Original AP • i. Add 1 mL PBS into AP vial, pipette re-pipette 10 times, then invert with cap on, to mix well. Take this 1 mL and add to 50 mL conical tube filled with 40 mL PBS. Invert to mix 10 times, vortex mix, let sit 2 minutes, invert to mix again 10 times • ii. Prepare 2 more 50 mL conical tubes • 1. 1:10 • a. […] 1:100 • a. Take 4 mL of solution made above, add to 36 mL PBS. […] New AP • i. Add 400 mg into a 50 mL conical tube filled with 40 mL PBS. Invert to mix 10 times, vortex mix, let sit 2 minutes, invert to mix 10 more times. Check to make sure all suspended. If not, vortex mix and invert until fully suspended. • 2. Prepare 24-well plates • 3. […] Aliquot with 200 μL PNPP Conditions • 1. Old AP • 2. Old AP (1:10) • 3. Old AP (1:100) • 4. New AP • 5. Blank (PBS only) Procedure • 1. 24-well plates • a. Add 1 mL (using P1000, blue tips) of the prepared PBS-AP to the plate (for each condition) • b. Add 100 μL of the test material to the well, mix with the same pipette tip, dispose and repeat for the rest of the test materials • c. Wrap the plate in saran wrap and place into the container • d. […] To the prepared 96-well plate with 200 μL PNPP or PBS, add 20 μL from the 24-well plate • 3. Incubate for 1 hour • 4.

skin = conditions: skin; chemical lists of the experiments; cited from earlier work
alkaline phosphatase [4] = assay type: biochemical; remark: listed apart in the source
Protocol: For the new study, the alkaline phosphatase was suspended in phosphate buffered saline (PBS) to make the reaction reagent. Then, 100 μL of the test chemical is added directly into the corresponding wells on a 24-well plate with 1.25 mL of alkaline phosphatase reaction reagent already aliquoted.
Preparation • 1. Alkaline phosphatase reaction reagent • a. Take 1 vial of AP, add 1 mL of PBS, mix by pipette/re-pipette 10 times • b. To a 50 mL conical tube, add 1 mL of the AP solution prepared above and 40 mL of PBS • 2. Prepare two 24-well plates • 3. […] Aliquot with 200 μL PNPP and PBS • 4. Prepare glass vials Repeat Procedure from 1-3-23 • 1. 24-well plate • a. Add 1.25 mL from the prepared PBS-AP conical tube to each well (11 wells) • b. Add 100 μL of the test material to the well, mix with the same pipette tip, dispose and repeat for the rest of the test materials • c. Wrap the plate in saran wrap and place into the container • 2. […] To the prepared 96-well plate with 200 μL PNPP or PBS, add 20 μL from the 24-well plate • 4. Incubate for 1 hour • 5. […] 24-well plate • a. Add 1.25 mL from the prepared PBS-AP conical tube to each well (11 wells) • b. Add 100 μL of the test material to the well, mix with the same pipette tip, dispose and repeat for the rest of the test materials • c. After 10 minutes, mix each well • 2. To the prepared 96-well plate with 200 μL PNPP or PBS, add 20 μL from the 24-well plate • 3. […] Aliquot 200 μL from the 24-well plate to glass vials filled with 2 mL of PNPP

| Compound | A2 - Results AVG (alkaline phosphatase [1]) | A2 - Results R1 (alkaline phosphatase [1]) | A2 - Results R3 (alkaline phosphatase [1]) | OD405 readings, buffered saline alkaline phosphatase reaction reagent, glass vials (FIG. 11B) (alkaline phosphatase [2]) | OD405 readings, ethanol alkaline phosphatase reaction reagent, glass vials (FIG. 11D) (alkaline phosphatase [2]) | OD405 readings, original alkaline phosphatase 1:100 (FIG. 6D) (alkaline phosphatase [3]) | in vivo GHS (skin) | raw optical density reading (PNPP), repeat without discs (FIG. 4) (alkaline phosphatase [4]) |
| --- | --- | --- | --- | --- | --- | --- | --- | --- |
| Cc1ccc(C(C)C)cc1O | 2.597 | 2.462 | 2.772 | 1.990 and 1.926 | 3.444 and 3.465 and 3.398 | 0.991 and 0.974 and 1.167 | Cat. 1B/1C | – |
| CCCCCCCC(=O)O [Octanoic Acid] | 2.342 | 2.12 | 2.129 | 1.427 and 1.415 and 1.416 | 3.283 and 3.408 and 3.220 | 3.462 and 3.491 and 3.333 | – | – |
| [K+].[OH-] [Potassium hydroxide (10%), Potassium hydroxide] | 0.108 | 0.107 | 0.108 | – | – | – | – | 0.123 and 0.124 |
